Measured values taken from paper PMC3387026, “Substrate Cooperativity in Marine Luciferases” (PLoS ONE, 2012).

Columns and labels:
Assay in all cases: bioluminescence (luminometer), light integrated over first […] s
Assay type in all cases: biochemical
Details in all cases: Tris-HCl pH 7.5, BSA; varied luciferin; O2 co-substrate
RLuc = target: T1, RLuc (Renilla reniformis, UniProt P27652)
T1 construct: His-tagged, expressed in NEB T7 Express cells, nickel-purified; 37 kDa monomer
T1 sequence (P27652 1-311): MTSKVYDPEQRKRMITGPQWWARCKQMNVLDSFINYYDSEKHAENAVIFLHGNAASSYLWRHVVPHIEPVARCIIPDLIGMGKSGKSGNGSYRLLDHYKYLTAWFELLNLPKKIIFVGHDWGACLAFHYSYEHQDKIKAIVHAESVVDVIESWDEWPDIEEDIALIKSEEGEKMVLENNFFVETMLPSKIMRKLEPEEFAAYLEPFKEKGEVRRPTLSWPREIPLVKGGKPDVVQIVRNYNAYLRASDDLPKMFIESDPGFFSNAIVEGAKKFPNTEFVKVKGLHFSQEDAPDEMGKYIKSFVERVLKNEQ

GLuc [1] = target: T2, GLuc (Gaussia princeps (in: crustaceans), UniProt Q9BLZ2, M60L/M127L)
T2 construct: amino-terminal His tag, expressed in E. coli SHuffle, nickel-purified
T2 sequence (Q9BLZ2 entry or part of it M60L/M127L): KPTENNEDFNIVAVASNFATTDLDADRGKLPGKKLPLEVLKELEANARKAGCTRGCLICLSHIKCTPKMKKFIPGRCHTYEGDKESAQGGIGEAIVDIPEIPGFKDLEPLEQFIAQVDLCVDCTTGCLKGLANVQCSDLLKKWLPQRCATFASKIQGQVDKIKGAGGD

GLuc [2] = target: T3, GLuc (Gaussia princeps (in: crustaceans), UniProt Q9BLZ2)
T3 construct: amino-terminal His tag, expressed in E. coli SHuffle, nickel-purified
T3 sequence (Q9BLZ2 entry or part of it): as the sequence (Q9BLZ2 entry or part of it M60L/M127L) above, with L43M, L110M counted along it

Compound: Oc1ccc(Cc2nc3c(Cc4ccccc4)nc(-c4ccc(O)cc4)cn3c2O)cc1 [coelenterazine]
- bioluminescence (luminometer), light integrated over first 10 s (RLuc): binding a single molecule of coelenterazine is sufficient for catalysis
- bioluminescence (luminometer), light integrated over first 10 s (GLuc [1]): GLuc, MLuc and the variant GLuc M43L/M110L of Welsh et al.
- bioluminescence (luminometer), light integrated over first 10 s (GLuc [2]): positive cooperative response of the GLuc activity with respect to coelenterazine
